Reference: patent US7521478B2, “Total synthesis of myriaporones” (Pharma Mar, S.A.U., priority 2002, dated 2009)

Experiments:
Type in all cases: cell-based
DU-145 = test: Inhibition of cell growth by colorimetric SRB assay, DU-145; conditions: Homo sapiens, DU-145, 48 hours exposure; for CC50: cell killing, read-out: LC50 (the source's name); for IC (total growth inhibition): read-out: TGI
Source text: (§1) The finality of these assays is to interrupt the growth of a “in vitro” tumor cell culture by means a continued exhibition of the cells to the sample to be testing.
(§2) Inhibition of Cell Growth by Colorimetric Assay.
(§3) A colorimetric type of assay, using sulforhodamine B (SRB) reaction has been adapted for a quantitative measurement of cell growth and viability (following the technique described by P. A. Skehan, et al., J. Natl. CancerInst. 1990, 82, 1107-1112).
(§4) This form of assay employs 96 well cell culture microplates of 9 mm diameter (T. Mosmann et al., J. of Immuological Methods 1983, 65, 55-63; G. T. Faircloth et al., J. of Tissue and Culture Methods 1988, 11, 201-205). Most of the cell lines are obtained from American Type Culture Collection (ATCC) derived from different human cancer types.
(§5) Cells are maintained in RPMI 1640 10% FBS, supplemented with 0.1 g/L penicillin and 0.1 g/L streptomycin sulfate and then incubated at 37° C., 5% CO2 and 98% humidity. For the experiments, cells were harvested from subconfluent cultures using trypsin and resuspended in fresh medium before plating.
(§6) Cells are seeded in 96 well microtiter plates, at 5×10^3 cells per well in aliquots of 195 μL medium, and they are allowed to attach to the plate surface by growing in drug free medium for 18 hours. Afterward, samples are added in aliquots of 5 μL in a ranging from 10 to 10^−8 μg/mL, dissolved in DMSO/EtOH/PBS (0.5:0.5:99). After 48 hours exposure, the antitumor effect are measured by the SRB methodology: cells are fixed by adding 50 μL of cold 50% (wt/vol) trichloroacetic acid (TCA) and incubated for 60 minutes at 4° C. Plates are washed with deionizer water and dried. One hundred μl of SRB solution (0.4% wt/vol in 1% acetic acid) is added to each microliter well and incubated for 10 minutes at room temperature. Unbound SRB is removed by washing with 1% acetic acid. Plates are air dried and bound stain is solubilized with Tris buffer. Optical densities are read on a automated spectrophotometric plate reader at a single wavelength of 490 nm.
(§7) The values for mean +/−SD of data from triplicate wells are calculated. Some parameters for cellular responses can be calculated: GI=growth inhibition, TGI=total growth inhibition (cytostatic effect) and LC=cell killing (cytotoxic effect).

LNCaP = test: Inhibition of cell growth by colorimetric SRB assay, LN-caP; conditions: Homo sapiens, LN-caP, 48 hours exposure; for CC50: cell killing, read-out: LC50 (the source's name); for IC (total growth inhibition): read-out: TGI
Source text: as §1, §2, §3, §4, §5, §6, §7

IGROV = test: Inhibition of cell growth by colorimetric SRB assay, IGROV; conditions: Homo sapiens, 48 hours exposure; for CC50: cell killing, read-out: LC50 (the source's name); for IC (total growth inhibition): read-out: TGI
Source text: as §1, §2, §3, §4, §5, §6, §7

IGROV-ET = test: Inhibition of cell growth by colorimetric SRB assay, IGROV-ET; conditions: Homo sapiens, IGROV-ET, 48 hours exposure; for CC50: cell killing, read-out: LC50 (the source's name); for IC (total growth inhibition): read-out: TGI
Source text: as §1, §2, §3, §4, §5, §6, §7

SK-BR-3 = test: Inhibition of cell growth by colorimetric SRB assay, SK-BR-3; conditions: SK-BR-3, 48 hours exposure; for GI50 / CC50: Homo sapiens; for CC50: cell killing, read-out: LC50 (the source's name); for TGI: total growth inhibition
Source text: as §1, §2, §3, §4, §5, §6, §7

SK-MEL-28 = test: Inhibition of cell growth by colorimetric SRB assay, MEL-28; conditions: Homo sapiens, SK-MEL-28, MEL-28, 48 hours exposure; for CC50: cell killing, read-out: LC50 (the source's name); for IC (total growth inhibition): read-out: TGI
Source text: as §1, §2, §3, §4, §5, §6, §7

A-549 = test: Inhibition of cell growth by colorimetric SRB assay, A-549; conditions: Homo sapiens, A549, A-549, 48 hours exposure; for CC50: cell killing, read-out: LC50 (the source's name); for IC (total growth inhibition): read-out: TGI
Source text: as §1, §2, §3, §4, §5, §6, §7

K-562 = test: Inhibition of cell growth by colorimetric SRB assay, K-562; conditions: Homo sapiens, K562, K-562, 48 hours exposure; for CC50: cell killing, read-out: LC50 (the source's name); for IC (total growth inhibition): read-out: TGI
Source text: as §1, §2, §3, §4, §5, §6, §7

PANC-1 = test: Inhibition of cell growth by colorimetric SRB assay, PANC-1; conditions: Homo sapiens, PANC-1, 48 hours exposure; for CC50: cell killing, read-out: LC50 (the source's name); for IC (total growth inhibition): read-out: TGI
Source text: as §1, §2, §3, §4, §5, §6, §7

HT-29 = test: Inhibition of cell growth by colorimetric SRB assay, HT-29; conditions: Homo sapiens, HT-29, 48 hours exposure; for CC50: cell killing, read-out: LC50 (the source's name); for IC (total growth inhibition): read-out: TGI
Source text: as §1, §2, §3, §4, §5, §6, §7

LoVo = test: Inhibition of cell growth by colorimetric SRB assay, LOVO; conditions: Homo sapiens, LOVO, 48 hours exposure; for LC50: cell killing, read-out: LC50; for IC (total growth inhibition): read-out: TGI
Source text: as §1, §2, §3, §4, §5, §6, §7

LoVo-Dox = test: Inhibition of cell growth by colorimetric SRB assay, LOVO-DOX; conditions: Homo sapiens, LOVO-DOX, 48 hours exposure; for LC50 (concentration for 50% cell killing): read-out: LC50; for IC (total growth inhibition): read-out: TGI
Source text: as §1, §2, §3, §4, §5, §6, §7

HeLa = test: Inhibition of cell growth by colorimetric SRB assay, HELA; conditions: Homo sapiens, HELA, 48 hours exposure; for CC50: cell killing, read-out: LC50 (the source's name); for IC (total growth inhibition): read-out: TGI
Source text: as §1, §2, §3, §4, §5, §6, §7

HeLa-APL = test: Inhibition of cell growth by colorimetric SRB assay, HELA-APL; conditions: Homo sapiens, HELA-APL, 48 hours exposure; for CC50: cell killing, read-out: LC50 (the source's name); for GI50: read-out: GI50; for IC (total growth inhibition): read-out: TGI
Source text: as §1, §2, §3, §4, §5, §6, §7

## C/C=C\[C@H](C)[C@H]1OC1(C)[C@@H](O)[C@@H](CO)C(=O)[C@H](CO)[C@H](O)CC(=O)CC (stereo partly drawn) [3b + 4b]
DU-145
  GI50: 6.52 µM
  CC50: 26.8 µM
  IC (total growth inhibition): 26.8 µM
LNCaP
  GI50: 9.29 µM
  CC50: 26.8 µM
  IC (total growth inhibition): 26.8 µM
IGROV
  GI50: 5.96 µM
  CC50: 26.8 µM
  IC (total growth inhibition): 26.8 µM
IGROV-ET
  GI50: 6.55 µM
  CC50: 26.8 µM
  IC (total growth inhibition): 26.8 µM
SK-BR-3
  GI50: 5.07 µM
  CC50: 23.3 µM
  TGI: 1.09E−05 Molar
SK-MEL-28
  GI50: 5.53 µM
  CC50: 26.8 µM
  IC (total growth inhibition): 26.8 µM
A-549
  GI50: 26.8 µM
  CC50: 26.8 µM
  IC (total growth inhibition): 26.8 µM
K-562
  GI50: 14.2 µM
  CC50: 23.3 µM
  IC (total growth inhibition): 18.2 µM
PANC-1
  GI50: 26.8 µM
  CC50: 26.8 µM
  IC (total growth inhibition): 26.8 µM
HT-29
  GI50: 22.1 µM
  CC50: 26.8 µM
  IC (total growth inhibition): 26.8 µM
LoVo
  GI50: 4.81 µM
  LC50: 26.8 µM
  IC (total growth inhibition): 12.6 µM
LoVo-Dox
  GI50: 9.34 µM
  LC50 (concentration for 50% cell killing): 26.8 µM
  IC (total growth inhibition): 26.8 µM
HeLa
  GI50: 8.73 µM
  CC50: 26.8 µM
  IC (total growth inhibition): 26.8 µM
HeLa-APL
  CC50: 26.8 µM
  GI50: 5.18 µM
  IC (total growth inhibition): 26.8 µM

## C/C=C\[C@H](C)[C@H]1O[C@@]1(C)[C@@H](O)[C@@H](CO)C(=O)[C@@H](CO)[C@@H](O)CC(=O)CC [3c + 4c]
DU-145
  GI50: 0.55 µM
  CC50: 26.8 µM
  IC (total growth inhibition): 4.16 µM
LNCaP
  GI50: 0.703 µM
  CC50: 26.8 µM
  IC (total growth inhibition): 4.56 µM
IGROV
  GI50: 0.553 µM
  CC50: 20.9 µM
  IC (total growth inhibition): 3.57 µM
IGROV-ET
  GI50: 0.703 µM
  CC50: 26.8 µM
  IC (total growth inhibition): 6.95 µM
SK-BR-3
  GI50: 1.16 µM
  CC50: 26.8 µM
  TGI: 6.07E−06 Molar
SK-MEL-28
  GI50: 0.634 µM
  CC50: 26.8 µM
  IC (total growth inhibition): 7.25 µM
A-549
  GI50: 0.913 µM
  CC50: 26.8 µM
  IC (total growth inhibition): 13.4 µM
K-562
  GI50: 4.59 µM
  CC50: 26.8 µM
  IC (total growth inhibition): 11.9 µM
PANC-1
  GI50: 1.03 µM
  CC50: 26.8 µM
  IC (total growth inhibition): 13.3 µM
HT-29
  GI50: 0.564 µM
  CC50: 26.8 µM
  IC (total growth inhibition): 6.69 µM
LoVo
  GI50: 0.714 µM
  LC50: 26.8 µM
  IC (total growth inhibition): 7.01 µM
LoVo-Dox
  GI50: 0.846 µM
  LC50 (concentration for 50% cell killing): 26.8 µM
  IC (total growth inhibition): 6.18 µM
HeLa
  GI50: 0.62 µM
  CC50: 26.8 µM
  IC (total growth inhibition): 4.78 µM
HeLa-APL
  CC50: 26.8 µM
  GI50: 0.593 µM
  IC (total growth inhibition): 8.67 µM
